Measured values: ChEMBL document CHEMBL4765285, “Discovery of orally active indirubin-3'-oxime derivatives as potent type 1 FLT3 inhibitors for acute myeloid leukemia” (Eur J Med Chem, 2020)
Activity calls are given as the source filed them. The rule behind the calls is not given here.

Key:
MOLM-14 [1] = test: cells; conditions: Homo sapiens
Description: Antiproliferative activity against human MOLM14 cells harboring ITD mutant assessed as cell growth inhibition by MTT assay

[2] = target: Platelet-derived growth factor receptor alpha (Homo sapiens) (UniProt P16234); test: Inhibition of human PDGFRa at 100 nM in presence of ATP relative to control
[3] = Toxicity in BALB/c nu/nu mouse xenografted with human MV4-11 cells assessed as body weight loss at 20 mg/kg, po administered for 21 days; format: organism-based; conditions: in vivo, 504 h, time 21 day
[4] = Acute toxicity in ICR mouse assessed as median lethal dose; conditions: in vivo
[5] = Acute toxicity in ICR female mouse assessed as approximate lethal dose; conditions: in vivo
[6] = tested on: Receptor-type tyrosine-protein kinase FLT3 (Homo sapiens), P36888 [D835Y]; test: Inhibition of human FLT3 D835Y mutant at 100 nM in presence of ATP relative to control
[7] = target: BDNF/NT-3 growth factors receptor (Homo sapiens, UniProt Q16620); test: Inhibition of human TrkB in presence of ATP
MOLM-14 [8] = test: cells; conditions: Homo sapiens; remark: listed apart in the source
Description: Antiproliferative activity against human MOLM14 cells harboring ITD/F691L mutant assessed as cell growth inhibition by MTT assay

[9] = target: T1, Vascular endothelial growth factor receptor 3 (Homo sapiens, UniProt P35916); test: Inhibition of human FLT4 in presence of ATP
T1 sequence (P35916 whole entry): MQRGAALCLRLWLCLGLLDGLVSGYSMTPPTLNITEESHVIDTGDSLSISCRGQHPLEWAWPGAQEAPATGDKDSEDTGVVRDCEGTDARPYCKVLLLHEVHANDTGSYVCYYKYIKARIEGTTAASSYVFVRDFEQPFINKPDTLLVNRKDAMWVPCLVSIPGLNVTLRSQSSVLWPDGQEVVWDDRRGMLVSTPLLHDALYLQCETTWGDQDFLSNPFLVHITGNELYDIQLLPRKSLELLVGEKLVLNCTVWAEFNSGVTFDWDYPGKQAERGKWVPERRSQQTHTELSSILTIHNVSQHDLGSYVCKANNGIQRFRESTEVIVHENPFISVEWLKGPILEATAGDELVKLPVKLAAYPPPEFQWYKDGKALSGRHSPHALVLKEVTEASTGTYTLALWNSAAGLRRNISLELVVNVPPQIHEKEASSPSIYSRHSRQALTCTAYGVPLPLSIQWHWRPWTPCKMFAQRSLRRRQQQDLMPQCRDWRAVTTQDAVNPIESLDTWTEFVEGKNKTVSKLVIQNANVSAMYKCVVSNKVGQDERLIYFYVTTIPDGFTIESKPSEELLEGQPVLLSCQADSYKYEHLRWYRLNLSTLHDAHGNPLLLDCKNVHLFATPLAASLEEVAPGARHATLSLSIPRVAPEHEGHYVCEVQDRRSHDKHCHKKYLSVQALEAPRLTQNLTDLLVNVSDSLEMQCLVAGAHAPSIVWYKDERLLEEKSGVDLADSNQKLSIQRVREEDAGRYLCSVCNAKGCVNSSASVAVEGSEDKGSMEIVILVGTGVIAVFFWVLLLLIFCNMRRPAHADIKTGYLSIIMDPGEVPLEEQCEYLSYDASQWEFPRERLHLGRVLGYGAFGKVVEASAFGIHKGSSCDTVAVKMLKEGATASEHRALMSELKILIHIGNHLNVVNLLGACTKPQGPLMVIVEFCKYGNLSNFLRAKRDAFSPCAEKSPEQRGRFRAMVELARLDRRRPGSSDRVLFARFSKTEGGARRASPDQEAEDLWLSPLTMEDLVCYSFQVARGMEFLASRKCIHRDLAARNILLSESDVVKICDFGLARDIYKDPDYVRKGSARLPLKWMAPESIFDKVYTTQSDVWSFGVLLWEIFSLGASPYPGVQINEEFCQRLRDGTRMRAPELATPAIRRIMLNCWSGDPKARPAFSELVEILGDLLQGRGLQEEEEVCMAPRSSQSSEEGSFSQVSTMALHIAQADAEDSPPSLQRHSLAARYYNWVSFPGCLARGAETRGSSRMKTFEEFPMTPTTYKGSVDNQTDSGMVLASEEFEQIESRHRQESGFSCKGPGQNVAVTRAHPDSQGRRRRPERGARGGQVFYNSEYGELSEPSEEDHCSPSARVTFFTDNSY

MV4-11 = test: Antitumor activity against human MV4-11 cells xenografted in BALB/c nu/nu mouse assessed as reduction in tumor volume at 20 mg/kg, po administered once daily for 21 days measured twice daily during compound dosing; format: functional, organism-based; conditions: time 21.0 day
[10] = target: Cyclin-dependent kinase 5 (Homo sapiens) (UniProt Q00535); test: Inhibition of human CDK5 at 100 nM in presence of ATP relative to control
Cyclin-dependent kinase 5 (Homo sapiens), sequence (Q00535 whole entry, looked up): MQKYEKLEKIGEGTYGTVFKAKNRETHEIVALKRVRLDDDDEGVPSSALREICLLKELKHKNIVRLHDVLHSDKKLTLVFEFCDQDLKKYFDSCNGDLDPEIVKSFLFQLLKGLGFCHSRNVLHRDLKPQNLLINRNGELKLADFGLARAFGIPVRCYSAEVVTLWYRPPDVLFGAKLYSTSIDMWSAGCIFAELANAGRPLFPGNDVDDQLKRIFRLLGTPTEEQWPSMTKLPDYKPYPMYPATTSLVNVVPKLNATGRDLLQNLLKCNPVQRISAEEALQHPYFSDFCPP

[11] = target: High affinity nerve growth factor receptor (Homo sapiens, UniProt P04629); test: Inhibition of human TrkA at 100 nM in presence of ATP relative to control
[12] = target: Receptor-type tyrosine-protein kinase FLT3 (Homo sapiens) (UniProt P36888); test: Inhibition of human FLT3 at 100 nM in presence of ATP relative to control
[13] = target: T2, Macrophage colony-stimulating factor 1 receptor (Homo sapiens, UniProt P07333); test: Inhibition of human FMS at 100 nM in presence of ATP relative to control
T2 sequence (P07333 whole entry): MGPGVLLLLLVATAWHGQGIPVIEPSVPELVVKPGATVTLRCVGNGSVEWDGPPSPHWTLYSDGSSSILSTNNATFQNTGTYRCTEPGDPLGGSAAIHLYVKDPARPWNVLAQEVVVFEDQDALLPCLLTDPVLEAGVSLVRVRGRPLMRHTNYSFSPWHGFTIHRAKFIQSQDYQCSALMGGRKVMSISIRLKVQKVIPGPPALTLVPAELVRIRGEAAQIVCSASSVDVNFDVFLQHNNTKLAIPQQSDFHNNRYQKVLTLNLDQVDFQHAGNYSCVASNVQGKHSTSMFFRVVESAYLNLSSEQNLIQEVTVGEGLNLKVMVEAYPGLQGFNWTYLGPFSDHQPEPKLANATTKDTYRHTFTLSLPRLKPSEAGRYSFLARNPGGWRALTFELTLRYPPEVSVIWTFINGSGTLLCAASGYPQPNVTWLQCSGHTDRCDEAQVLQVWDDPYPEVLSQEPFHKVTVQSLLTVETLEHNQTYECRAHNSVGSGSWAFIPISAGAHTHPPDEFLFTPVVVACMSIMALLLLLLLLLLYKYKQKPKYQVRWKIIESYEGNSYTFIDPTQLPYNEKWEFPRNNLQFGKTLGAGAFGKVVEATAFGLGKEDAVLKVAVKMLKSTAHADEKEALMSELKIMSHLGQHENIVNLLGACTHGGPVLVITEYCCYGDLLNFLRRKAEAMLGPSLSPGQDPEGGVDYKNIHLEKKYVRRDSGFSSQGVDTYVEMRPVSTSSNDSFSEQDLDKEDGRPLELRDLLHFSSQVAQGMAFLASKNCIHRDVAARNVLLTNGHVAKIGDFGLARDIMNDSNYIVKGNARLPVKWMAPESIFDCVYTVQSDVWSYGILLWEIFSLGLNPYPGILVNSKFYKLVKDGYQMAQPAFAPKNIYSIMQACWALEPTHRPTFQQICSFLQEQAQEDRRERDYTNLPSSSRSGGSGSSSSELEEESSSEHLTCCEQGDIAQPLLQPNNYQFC

[14] = target: Receptor-type tyrosine-protein kinase FLT3 (Homo sapiens) (UniProt P36888); test: Inhibition of FLT3 in human MV4-11 cells assessed as reduction in STAT5 phosphorylation at 10 nM incubated for 4 hrs by Western blot analysis; format: cell-based
[15] = target: Tyrosine-protein kinase Mer (Homo sapiens, UniProt Q12866); test: Inhibition of human MER in presence of ATP
[16] = target: T3, Proto-oncogene tyrosine-protein kinase receptor Ret (Homo sapiens, UniProt P07949); test: Inhibition of human RET at 100 nM in presence of ATP relative to control
T3 sequence (P07949 whole entry): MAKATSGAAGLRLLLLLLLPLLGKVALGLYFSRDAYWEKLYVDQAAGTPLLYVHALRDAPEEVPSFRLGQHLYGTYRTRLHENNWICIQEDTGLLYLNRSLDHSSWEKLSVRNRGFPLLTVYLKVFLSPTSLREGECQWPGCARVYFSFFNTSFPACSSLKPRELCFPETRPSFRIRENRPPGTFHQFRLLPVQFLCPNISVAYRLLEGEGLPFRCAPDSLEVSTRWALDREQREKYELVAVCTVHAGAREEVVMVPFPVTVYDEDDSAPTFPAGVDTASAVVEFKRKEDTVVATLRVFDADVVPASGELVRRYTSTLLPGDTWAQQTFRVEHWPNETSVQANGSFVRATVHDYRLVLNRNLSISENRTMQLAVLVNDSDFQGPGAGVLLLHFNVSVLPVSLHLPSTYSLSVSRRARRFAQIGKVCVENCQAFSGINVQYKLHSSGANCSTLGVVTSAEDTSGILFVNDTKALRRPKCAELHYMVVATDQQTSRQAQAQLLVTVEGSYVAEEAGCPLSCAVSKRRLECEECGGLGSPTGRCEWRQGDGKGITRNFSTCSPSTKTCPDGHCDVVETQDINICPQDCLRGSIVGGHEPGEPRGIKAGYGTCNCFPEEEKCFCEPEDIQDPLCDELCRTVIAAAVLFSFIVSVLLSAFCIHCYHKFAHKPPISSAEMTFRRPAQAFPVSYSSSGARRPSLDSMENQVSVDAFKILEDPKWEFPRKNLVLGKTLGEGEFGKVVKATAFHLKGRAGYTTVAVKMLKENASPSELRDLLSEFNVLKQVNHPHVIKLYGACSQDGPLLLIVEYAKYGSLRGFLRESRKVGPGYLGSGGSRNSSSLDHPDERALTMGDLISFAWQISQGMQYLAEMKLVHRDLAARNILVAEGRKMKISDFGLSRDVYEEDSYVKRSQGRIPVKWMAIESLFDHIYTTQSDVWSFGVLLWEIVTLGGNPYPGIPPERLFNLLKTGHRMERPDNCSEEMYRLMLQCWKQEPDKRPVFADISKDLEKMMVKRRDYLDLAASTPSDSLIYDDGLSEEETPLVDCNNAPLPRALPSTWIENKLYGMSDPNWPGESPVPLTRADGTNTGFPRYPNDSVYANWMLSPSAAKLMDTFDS

[17] = AUClast in ICR mouse at 10 mg/kg, iv or po measured up to 1440 mins by LC-MS/MS analysis; format: ADME, organism-based; parameters: dose 10 mg/kg, time <=1440; conditions: in vivo
[18] = target: T1, Vascular endothelial growth factor receptor 3; test: Inhibition of human FLT4 at 100 nM in presence of ATP relative to control
hERG (KCNH2) = hERG (KCNH2) (Homo sapiens, UniProt Q12809); test: Inhibition of human ERG at 10 uM relative to control
hERG (KCNH2), sequence (Q12809 whole entry): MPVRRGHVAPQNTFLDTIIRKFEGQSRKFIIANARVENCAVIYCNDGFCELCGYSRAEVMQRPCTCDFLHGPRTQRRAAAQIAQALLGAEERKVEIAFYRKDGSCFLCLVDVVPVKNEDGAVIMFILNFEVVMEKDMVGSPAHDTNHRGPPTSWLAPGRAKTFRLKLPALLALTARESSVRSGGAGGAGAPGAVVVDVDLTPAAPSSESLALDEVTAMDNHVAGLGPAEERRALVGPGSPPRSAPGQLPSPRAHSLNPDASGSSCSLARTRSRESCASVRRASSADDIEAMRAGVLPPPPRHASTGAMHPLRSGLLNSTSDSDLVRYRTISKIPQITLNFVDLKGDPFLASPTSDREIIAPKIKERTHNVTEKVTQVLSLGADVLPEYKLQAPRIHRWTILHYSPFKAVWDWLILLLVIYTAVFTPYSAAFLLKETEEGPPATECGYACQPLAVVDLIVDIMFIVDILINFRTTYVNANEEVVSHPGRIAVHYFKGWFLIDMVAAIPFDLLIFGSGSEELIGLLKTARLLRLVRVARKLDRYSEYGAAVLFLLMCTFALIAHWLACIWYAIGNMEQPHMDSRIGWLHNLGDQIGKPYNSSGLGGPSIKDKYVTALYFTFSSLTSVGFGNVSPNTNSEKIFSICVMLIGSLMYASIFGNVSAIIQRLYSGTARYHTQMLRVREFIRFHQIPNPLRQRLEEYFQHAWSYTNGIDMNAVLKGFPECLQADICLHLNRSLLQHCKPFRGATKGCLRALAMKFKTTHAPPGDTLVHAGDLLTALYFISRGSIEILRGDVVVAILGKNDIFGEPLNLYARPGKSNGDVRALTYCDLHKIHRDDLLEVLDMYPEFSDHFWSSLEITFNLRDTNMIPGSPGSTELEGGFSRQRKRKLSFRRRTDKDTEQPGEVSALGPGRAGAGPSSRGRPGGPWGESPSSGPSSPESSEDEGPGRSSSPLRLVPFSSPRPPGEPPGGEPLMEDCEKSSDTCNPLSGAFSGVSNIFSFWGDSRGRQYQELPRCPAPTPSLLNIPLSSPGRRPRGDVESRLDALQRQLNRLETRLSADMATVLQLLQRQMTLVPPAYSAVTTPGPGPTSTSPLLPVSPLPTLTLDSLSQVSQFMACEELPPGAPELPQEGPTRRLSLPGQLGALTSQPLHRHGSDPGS

[19] = target: Maternal embryonic leucine zipper kinase (Homo sapiens, UniProt Q14680); test: Inhibition of human MELK at 100 nM in presence of ATP relative to control
MOLM-14 [20] = test: cells; conditions: Homo sapiens; remark: listed apart in the source
Description: Antiproliferative activity against wild type human MOLM14 cells assessed as cell growth inhibition by MTT assay

[21] = target: Proto-oncogene tyrosine-protein kinase Src (Homo sapiens, UniProt P12931); test: Inhibition of human c-SRC in presence of ATP
[22] = target: Cyclin-dependent kinase 2 (Homo sapiens) (UniProt P24941); test: Inhibition of human CDK2 at 100 nM in presence of ATP relative to control
K562 = test: Antiproliferative activity against human K562 cells assessed as cell growth inhibition by WST assay; format: functional
[23] = target: T2, Macrophage colony-stimulating factor 1 receptor; test: Inhibition of human FMS in presence of ATP
[24] = target: T4, Receptor-type tyrosine-protein kinase FLT3 (Homo sapiens, UniProt P36888)
T4 sequence (P36888 whole entry): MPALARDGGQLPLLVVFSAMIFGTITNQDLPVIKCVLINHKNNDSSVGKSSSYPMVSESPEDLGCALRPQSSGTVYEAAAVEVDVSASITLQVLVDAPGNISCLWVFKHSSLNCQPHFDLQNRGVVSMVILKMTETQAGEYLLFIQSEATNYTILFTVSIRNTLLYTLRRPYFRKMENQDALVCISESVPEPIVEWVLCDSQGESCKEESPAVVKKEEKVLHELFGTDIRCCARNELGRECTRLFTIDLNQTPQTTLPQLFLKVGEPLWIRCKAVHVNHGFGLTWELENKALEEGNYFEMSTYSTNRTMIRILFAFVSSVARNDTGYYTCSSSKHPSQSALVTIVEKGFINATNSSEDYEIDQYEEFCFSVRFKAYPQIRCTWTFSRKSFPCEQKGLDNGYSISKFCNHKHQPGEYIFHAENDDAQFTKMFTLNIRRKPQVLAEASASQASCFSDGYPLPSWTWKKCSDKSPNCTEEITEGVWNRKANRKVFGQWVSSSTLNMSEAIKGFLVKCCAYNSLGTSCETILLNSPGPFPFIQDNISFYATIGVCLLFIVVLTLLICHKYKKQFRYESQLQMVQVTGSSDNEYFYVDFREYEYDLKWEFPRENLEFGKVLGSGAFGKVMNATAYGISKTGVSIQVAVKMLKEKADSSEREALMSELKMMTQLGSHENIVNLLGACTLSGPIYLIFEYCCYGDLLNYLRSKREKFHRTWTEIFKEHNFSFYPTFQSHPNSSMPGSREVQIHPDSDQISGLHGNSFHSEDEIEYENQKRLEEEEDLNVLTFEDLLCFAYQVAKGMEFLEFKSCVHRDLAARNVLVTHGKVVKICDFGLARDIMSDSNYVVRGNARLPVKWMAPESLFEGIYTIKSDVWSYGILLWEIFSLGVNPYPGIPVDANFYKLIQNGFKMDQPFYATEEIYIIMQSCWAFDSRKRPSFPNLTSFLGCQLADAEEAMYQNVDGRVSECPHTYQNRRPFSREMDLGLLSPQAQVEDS
Description: Inhibition of recombinant His-tagged human FLT3 expressed in baculovirus expression system using peptide substrate incubated for 30 mins in presence of ATP by HTRF assay

[25] = target: Receptor-type tyrosine-protein kinase FLT3 (Homo sapiens, UniProt P36888, D835Y); test: Inhibition of human FLT3 D835Y mutant in presence of ATP
[26] = target: Mast/stem cell growth factor receptor Kit (Homo sapiens) (UniProt P10721); test: Inhibition of human c-KIT at 100 nM in presence of ATP relative to control
[27] = target: Receptor-type tyrosine-protein kinase FLT3 (Homo sapiens, UniProt P36888, ITD); test: Binding affinity to human FLT3 ITD mutant in presence of ATP by Lanthascreen Eu kinase binding assay
[28] = target: T3, Proto-oncogene tyrosine-protein kinase receptor Ret; test: Inhibition of human RET in presence of ATP

Cl.O=C1Nc2ccc(F)cc2/C1=C1/Nc2ccccc2/C1=N\OCCN1CCNCC1
GI50 (MOLM-14 [1]): 1.85 nM | inhibition [2]: 5% | Activity [3]: Non-Toxic | LD50 [4]: 4950 mg/kg | ALD50 [5]: 2000 mg/kg | inhibition [6]: 99% | IC50 [7]: 2.04 nM | GI50 (MOLM-14 [8]): 3.27 nM | IC50 [9]: 23.8 nM | Activity (MV4-11): Active | inhibition [10]: 54% | inhibition [11]: 99% | inhibition [12]: 98% | inhibition [13]: 92% | inhibition [14]: 100% | IC50 [15]: 3.01 nM | inhibition [16]: 98% | AUC(0-t) at 24 h [17]: 417 ng·h/mL | inhibition [18]: 89% | inhibition at 10 µM (hERG (KCNH2)): 21.4% | inhibition [19]: 86% | GI50 (MOLM-14 [20]): 4.88 nM | IC50 [21]: 9.52 nM | inhibition [22]: 43% | GI50 (K562): 437 nM | IC50 [23]: 4.2 nM | IC50 [24]: 0.87 nM | IC50 [25]: 0.32 nM | inhibition [26]: 22% | Kd [27]: < 0.25 nM | IC50 [28]: 1.21 nM
